Test results as given in patent publication US9597402B2, “Sustained release small molecule drug formulation” (DURECT CORPORATION, priority 2005, dated 2017).

How the values were obtained:
[1] = Intrinsic dissolution rate; format: physicochemical
Excerpt: (§1) In one embodiment, a small molecule drug formulation includes a small molecule psychotherapeutic drug, such as a small molecule antipsychotic, dopamine receptor agonist, dopamine receptor antagonist, serotonin receptor agonist, serotonin receptor antagonist, and serotonin uptake inhibitor drug. […] R209130-base has the molecular formula C19H20FNO. R209130-mandelic acid salt (R209130) has the molecular formula C19H20FNO.C8H8O3. R209130-tartaric acid salt (R167154) has the molecular formula C19H20FNO.C4H6O6.

[2] = Solubility in H2O; conditions: pH 7.2
Excerpt: as §1

[3] = Solubility in benzyl benzoate (BB); conditions: temperature not given
Excerpt: as §1

[4] = Solubility in benzyl alcohol (BA); conditions: temperature not given
Excerpt: as §1

[5] = Solubility at pH 7; conditions: cell states pH 7.2
Excerpt: as §1

SMILES | Intrinsic dissolution rate [1] [mg/cm^2 · min] | Solubility in H2O [2] | Solubility in BB [3] [µg/mL] | Solubility in BA [4] [µg/mL] | Solubility at pH 7 [5]
Cc1nc2n(c(=O)c1CCN1CCC(c3noc4cc(F)ccc34)CC1)CCCC2 [Risperidone base, Risperidone] | 0.0025 |  |  |  | 
Cc1nc2n(c(=O)c1CCN1CCC(c3noc4cc(F)ccc34)CC1)CCCC2 [Risperidone pamoate, Risperidone-pamoate] |  | 0.2 (pH 7.2) mg/ml | 50 | 2970 | 0.2 (pH 7.2) mg/ml
